Results: US11498899B2, “Nitrone herbicides” (FMC Corporation, priority 2016, dated 2022)

What was measured:
[1] = system: barnyardgrass (Echinochloa crus-galli); assay: Test A preemergence, visual injury rating 0-100 (0 no effect, 100 complete control); assay type: in vivo; conditions: for Barnyardgrass plant response rating (0 to 100 scale): 125 g ai/ha
[2] = system: foxtail, green (green foxtail, Setaria viridis); assay: Test A preemergence, visual injury rating 0-100; assay type: in vivo; conditions: for Foxtail, Green plant response rating (0 to 100 scale): 125 g ai/ha
kochia (Kochia scoparia) [3] = assay: Test A preemergence, visual injury rating 0-100; assay type: in vivo; conditions: for Kochia plant response rating (0 to 100 scale): 125 g ai/ha
[4] = system: pigweed (Amaranthus retroflexus); assay: Test A preemergence, visual injury rating 0-100; assay type: in vivo; conditions: for Pigweed plant response rating (0 to 100 scale): 125 g ai/ha
[5] = system: ragweed (common ragweed, Ambrosia elatior); assay: Test A preemergence, visual injury rating 0-100; assay type: in vivo; conditions: for Ragweed plant response rating (0 to 100 scale): 125 g ai/ha
[6] = system: ryegrass, Italian (Italian ryegrass, Lolium multiflorum); assay: Test A preemergence, visual injury rating 0-100; assay type: in vivo; conditions: for Ryegrass, Italian plant response rating (0 to 100 scale): 125 g ai/ha
[7] = system: barnyardgrass (Echinochloa crus-galli); assay: Test A postemergence, visual injury rating 0-100; assay type: in vivo; conditions: 0 to 100 scale
[8] = system: blackgrass (Alopecurus myosuroides); assay: Test A postemergence, visual injury rating 0-100; assay type: in vivo; conditions: 0 to 100 scale
corn (Zea mays) = assay: Test A postemergence, visual injury rating 0-100; assay type: in vivo; conditions: 0 to 100 scale
[9] = system: foxtail, green (green foxtail, Setaria viridis); assay: Test A postemergence, visual injury rating 0-100; assay type: in vivo; conditions: 0 to 100 scale
[10] = system: galium (catchweed bedstraw, Galium aparine); assay: Test A postemergence, visual injury rating 0-100; assay type: in vivo; conditions: 0 to 100 scale
kochia (Kochia scoparia) [11] = assay: Test A postemergence, visual injury rating 0-100; assay type: in vivo; conditions: 0 to 100 scale
[12] = system: pigweed (Amaranthus retroflexus); assay: Test A postemergence, visual injury rating 0-100; assay type: in vivo; conditions: 0 to 100 scale
[13] = system: ragweed (common ragweed, Ambrosia elatior); assay: Test A postemergence, visual injury rating 0-100; assay type: in vivo; conditions: 0 to 100 scale
[14] = system: ryegrass, Italian (Italian ryegrass, Lolium multiflorum); assay: Test A postemergence, visual injury rating 0-100; assay type: in vivo; conditions: 0 to 100 scale
[15] = system: wheat (Triticum aestivum); assay: Test A postemergence, visual injury rating 0-100; assay type: in vivo; conditions: 0 to 100 scale
[16] = system: ducksalad (Heteranthera limosa); assay: Test B flooded paddy test, visual rating 0-100; conditions: Flood, 250 g ai/ha, applied to paddy water, rated after 13 to 15 days
[17] = system: barnyardgrass (Echinochloa crus-galli); assay: Test B flooded paddy test, visual rating 0-100; conditions: Flood, 250 g ai/ha, applied to paddy water, rated after 13 to 15 days
rice (Oryza sativa) = assay: Test B flooded paddy test, visual rating 0-100 (0 no effect, 100 complete control); conditions: Flood, 250 g ai/ha, applied to paddy water, rated after 13 to 15 days
[18] = 31 g ai/ha, 0 to 100 scale (0 no effect, 100 complete control), approx. 10 days

Row | Compound | Barnyardgrass plant response rating (0 to 100 scale) [1] | Foxtail, Green plant response rating (0 to 100 scale) [2] | Kochia plant response rating (0 to 100 scale) (kochia (Kochia scoparia) [3]) | Pigweed plant response rating (0 to 100 scale) [4] | Ragweed plant response rating (0 to 100 scale) [5] | Ryegrass, Italian plant response rating (0 to 100 scale) [6] | Barnyardgrass plant response rating ([7]; 125 g ai/ha) | Blackgrass plant response rating ([8]; 125 g ai/ha) | Corn plant response rating (corn (Zea mays); 125 g ai/ha) | Foxtail, Green plant response rating ([9]; 125 g ai/ha) | Galium plant response rating ([10]; 125 g ai/ha) | Kochia plant response rating (kochia (Kochia scoparia) [11]; 125 g ai/ha) | Pigweed plant response rating ([12]; 125 g ai/ha) | Ragweed plant response rating ([13]; 125 g ai/ha) | Ryegrass, Italian plant response rating ([14]; 125 g ai/ha) | Wheat plant response rating ([15]; 125 g ai/ha) | Ducksalad plant response rating (0 to 100 scale) [16] | Barnyardgrass plant response rating (0 to 100 scale) [17] | Rice plant response rating (0 to 100 scale) (rice (Oryza sativa)) | Barnyardgrass plant response rating [1, 18] | also measured
1 | CC1=[N+]([O-])[C@@H](C(=O)Nc2ccccc2F)[C@H](c2ccc(C(F)(F)F)cc2)C1 (relative stereo) [Compound 26, trans-N-(2-fluorophenyl)-3,4-dihydro-5-methyl-3-[4-(trifluoromethyl)phenyl]-2H-pyrrole-2-carboxamide 1-oxide] | 80 | 100 | 50 | 70 | 80 | 20 | 60 | 20 | 0 | 50 | 70 | 0 | 30 | 20 | 0 | 0 | 100 | 60 | 0 | – | Barnyardgrass plant response rating ([1]; 500 g ai/ha, 0 to 100 scale): 100; Foxtail, Green plant response rating ([2]; 500 g ai/ha, 0 to 100 scale): 100; Kochia plant response rating (kochia (Kochia scoparia) [3]; 500 g ai/ha, 0 to 100 scale): 90; Pigweed plant response rating ([4]; 500 g ai/ha, 0 to 100 scale): 90; Ragweed plant response rating ([5]; 500 g ai/ha, 0 to 100 scale): 90; Ryegrass, Italian plant response rating ([6]; 500 g ai/ha, 0 to 100 scale): 70; Barnyardgrass plant response rating ([7]; 500 g ai/ha): 90; Blackgrass plant response rating ([8]; 500 g ai/ha): 60; Corn plant response rating (corn (Zea mays); 500 g ai/ha): 0; Foxtail, Green plant response rating ([9]; 500 g ai/ha): 90; Galium plant response rating ([10]; 500 g ai/ha): 80; Kochia plant response rating (kochia (Kochia scoparia) [11]; 500 g ai/ha): 10; Pigweed plant response rating ([12]; 500 g ai/ha): 80; Ragweed plant response rating ([13]; 500 g ai/ha): 60; Ryegrass, Italian plant response rating ([14]; 500 g ai/ha): 20; Wheat plant response rating ([15]; 500 g ai/ha): 10
2 | CC1=[N+]([O-])[C@@H](C(=O)Nc2cccc(F)c2F)[C@H](c2ccc(F)c(F)c2)C1 [Compound 39] | 100 | 100 | 30 | 30 | 100 | 10 | 60 | 50 | 10 | 70 | 10 | 0 | 0 | 0 | 10 | 50 | 100 | 90 | 10 | 100 | Foxtail, Green plant response rating [2, 18]: 100; Kochia plant response rating (kochia (Kochia scoparia) [3]; [18]): 0; Pigweed plant response rating [4, 18]: 0; Ragweed plant response rating [5, 18]: 0; Ryegrass, Italian plant response rating [6, 18]: 20; Barnyardgrass plant response rating ([7]; 31 g ai/ha): 0; Blackgrass plant response rating ([8]; 31 g ai/ha): 0; Corn plant response rating (corn (Zea mays); 31 g ai/ha): 0; Foxtail, Green plant response rating ([9]; 31 g ai/ha): 10; Galium plant response rating ([10]; 31 g ai/ha): 0; Kochia plant response rating (kochia (Kochia scoparia) [11]; 31 g ai/ha): 0; Pigweed plant response rating ([12]; 31 g ai/ha): 0; Ragweed plant response rating ([13]; 31 g ai/ha): 0; Ryegrass, Italian plant response rating ([14]; 31 g ai/ha): 0; Wheat plant response rating ([15]; 31 g ai/ha): 0
3 | CC1=[N+]([O-])[C@H](C(=O)Nc2cccc(F)c2F)[C@@H](c2ccc(Cl)cc2)C1 [Compound 40, (2S,3R)-3-(4-chlorophenyl)-N-(2,3-difluorophenyl)-3,4-dihydro-5-methyl-2H-pyrrole-2-carboxamide 1-oxide] | 100 | 100 | 80 | 80 | 80 | 10 | 90 | 60 | 30 | 80 | 60 | 0 | 0 | 0 | 20 | 10 | 95 | 80 | 25 | 100 | Foxtail, Green plant response rating [2, 18]: 100; Kochia plant response rating (kochia (Kochia scoparia) [3]; [18]): 0; Pigweed plant response rating [4, 18]: 0; Ragweed plant response rating [5, 18]: 20; Ryegrass, Italian plant response rating [6, 18]: 0; Barnyardgrass plant response rating ([7]; 31 g ai/ha): 80; Blackgrass plant response rating ([8]; 31 g ai/ha): 0; Corn plant response rating (corn (Zea mays); 31 g ai/ha): 20; Foxtail, Green plant response rating ([9]; 31 g ai/ha): 40; Galium plant response rating ([10]; 31 g ai/ha): 10; Kochia plant response rating (kochia (Kochia scoparia) [11]; 31 g ai/ha): 0; Pigweed plant response rating ([12]; 31 g ai/ha): 0; Ragweed plant response rating ([13]; 31 g ai/ha): 0; Ryegrass, Italian plant response rating ([14]; 31 g ai/ha): 0; Wheat plant response rating ([15]; 31 g ai/ha): 0
